Reference: ChEMBL document CHEMBL1833947, “Synthesis and biological investigation of potential atypical antipsychotics with a tropane core. Part 1” (Eur J Med Chem, 2011)
Active and inactive are the calls of the source. The calls are words filed in the database; no cut-off is given here.

Columns and labels:
[1] = system: Rattus norvegicus; assay: Antipsychotic activity in 8-OH-DPAT-stimulated rat assessed as lower lip retractions at 10 mg/kg, iv administered 45 mins before 8-OH-DPAT challenge measured after 15 to 45 mins (reference value: 2.9 retractions); format: functional
[2] = system: Rattus norvegicus; assay: Antipsychotic activity in 8-OH-DPAT-stimulated rat assessed as lower lip retractions at 20 mg/kg, iv administered 45 mins before 8-OH-DPAT challenge measured after 15 to 45 mins (reference value: 2.9 retractions); format: functional
[3] = system: Mus musculus; assay: Antidepressant-like activity in Swiss albino mouse assessed as immobilization time at 10 mg/kg, ip after 30 mins by forced swim test; format: functional
[4] = system: Mus musculus; assay: Antidepressant-like activity in Swiss albino mouse assessed as immobilization time at 20 mg/kg, ip after 30 mins by forced swim test; format: functional, organism-based; parameters: dose 20 mg/kg
[5] = target: T1, 5-hydroxytryptamine receptor 1A (Rattus norvegicus, UniProt P19327); assay: Displacement of [3H]8OH-DPAT from 5HT1A in rat brain cerebral cortex after 15 mins by scintillation counting; format: tissue-based
T1 sequence (P19327 whole entry): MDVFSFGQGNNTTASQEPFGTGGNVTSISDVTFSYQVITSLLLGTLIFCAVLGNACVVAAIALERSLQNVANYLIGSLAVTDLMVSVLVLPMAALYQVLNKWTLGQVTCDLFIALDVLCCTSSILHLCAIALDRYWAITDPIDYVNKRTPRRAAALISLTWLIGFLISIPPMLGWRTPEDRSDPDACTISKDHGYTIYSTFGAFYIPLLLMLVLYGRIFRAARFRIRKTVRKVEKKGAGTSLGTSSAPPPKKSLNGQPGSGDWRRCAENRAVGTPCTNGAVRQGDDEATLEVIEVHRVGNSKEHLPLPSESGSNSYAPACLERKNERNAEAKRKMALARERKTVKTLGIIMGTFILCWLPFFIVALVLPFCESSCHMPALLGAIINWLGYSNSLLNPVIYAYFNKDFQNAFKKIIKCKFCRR

[6] = target: 5-hydroxytryptamine receptor 2A (Rattus norvegicus, UniProt P14842); assay: Displacement of [3H]ketanserin from 5HT2A in rat brain cerebral cortex after 20 mins by scintillation counting; format: tissue-based
[7] = target: D(2) dopamine receptor (Rattus norvegicus, UniProt P61169); assay: Displacement of [3H]spiperone from dopamine D2 receptor in rat striatum tissue after 20 mins by scintillation counting; format: tissue-based
[8] = system: Mus musculus; assay: Antipsychotic activity in mouse assessed as reversal of apomorphine-induced mesh climbing response at 10 mg/kg, ip administered 10 mins prior to apomorphine challenge measured after 40 mins; format: functional, organism-based; parameters: dose 10 mg/kg
[9] = system: Mus musculus; assay: Antipsychotic activity in mouse assessed as reversal of apomorphine-induced mesh climbing response at 10 mg/kg, ip administered 10 mins prior to apomorphine challenge measured after 50 mins; format: functional, organism-based; parameters: dose 10 mg/kg
[10] = system: Mus musculus; assay: Antipsychotic activity in mouse assessed as reversal of apomorphine-induced mesh climbing response at 10 mg/kg, ip administered 10 mins prior to apomorphine challenge measured after 60 mins; format: functional, organism-based; parameters: dose 10 mg/kg
[11] = system: Mus musculus; assay: Antipsychotic activity in mouse assessed as reversal of DOI-induced head twitches at 5 mg/kg, ip administered 30 mins before DOI challenge; format: functional; conditions: route intraperitoneal
[12] = system: Mus musculus; assay: Antipsychotic activity in mouse assessed as reversal of DOI-induced head twitches at 10 mg/kg, ip administered 30 mins before DOI challenge; format: functional; conditions: route intraperitoneal
[13] = system: Mus musculus; assay: Antipsychotic activity in mouse assessed as reversal of DOI-induced head twitches at 20 mg/kg, ip administered 30 mins before DOI challenge; format: functional; conditions: route intraperitoneal
[14] = system: Rattus norvegicus; assay: Induction of 5HT1A receptor in rat assesses as lower lip retractions at 10 mg/kg, iv after 15 mins (reference value: 0.1 +/- 0.1 retractions); format: functional
[15] = system: Rattus norvegicus; assay: Induction of 5HT1A receptor in rat assesses as lower lip retractions at 20 mg/kg, iv after 15 mins (reference value: 0.1 +/- 0.1 retractions); format: functional
[16] = species on record: Mus musculus; conditions: Swiss albino, 5 mg/kg
Description: Hypothermic effect in Swiss albino mouse assessed as change in body temperature at 5 mg/kg, ip measured after 30 mins

[17] = species on record: Mus musculus; conditions: Swiss albino, 10 mg/kg
Description: Hypothermic effect in Swiss albino mouse assessed as change in body temperature at 10 mg/kg, ip measured after 30 mins

[18] = species on record: Mus musculus; conditions: Swiss albino, 20 mg/kg
Description: Hypothermic effect in Swiss albino mouse assessed as change in body temperature at 20 mg/kg, ip measured after 30 mins

[19] = species on record: Mus musculus; conditions: Swiss albino, 5 mg/kg; remark: listed apart in the source
Description: Hypothermic effect in Swiss albino mouse assessed as change in body temperature at 5 mg/kg, ip measured after 60 mins

[20] = species on record: Mus musculus; conditions: Swiss albino, 10 mg/kg; remark: listed apart in the source
Description: Hypothermic effect in Swiss albino mouse assessed as change in body temperature at 10 mg/kg, ip measured after 60 mins

[21] = species on record: Mus musculus; conditions: Swiss albino, 20 mg/kg; remark: listed apart in the source
Description: Hypothermic effect in Swiss albino mouse assessed as change in body temperature at 20 mg/kg, ip measured after 60 mins

[22] = species on record: Mus musculus; conditions: Swiss albino, 5 mg/kg; remark: listed apart in the source
Description: Hypothermic effect in Swiss albino mouse assessed as change in body temperature at 5 mg/kg, ip measured after 90 mins

[23] = species on record: Mus musculus; conditions: Swiss albino, 10 mg/kg; remark: listed apart in the source
Description: Hypothermic effect in Swiss albino mouse assessed as change in body temperature at 10 mg/kg, ip measured after 90 mins

[24] = species on record: Mus musculus; conditions: Swiss albino, 20 mg/kg; remark: listed apart in the source
Description: Hypothermic effect in Swiss albino mouse assessed as change in body temperature at 20 mg/kg, ip measured after 90 mins

[25] = species on record: Mus musculus; conditions: Swiss albino, 5 mg/kg; remark: listed apart in the source
Description: Hypothermic effect in Swiss albino mouse assessed as change in body temperature at 5 mg/kg, ip measured after 120 mins

[26] = species on record: Mus musculus; conditions: Swiss albino, 10 mg/kg; remark: listed apart in the source
Description: Hypothermic effect in Swiss albino mouse assessed as change in body temperature at 10 mg/kg, ip measured after 120 mins

[27] = species on record: Mus musculus; conditions: Swiss albino, 20 mg/kg; remark: listed apart in the source
Description: Hypothermic effect in Swiss albino mouse assessed as change in body temperature at 20 mg/kg, ip measured after 120 mins

[28] = species on record: Mus musculus; conditions: Swiss albino, 20 mg/kg; remark: listed apart in the source
Description: Hypothermic effect in Swiss albino mouse assessed as change in body temperature at 20 mg/kg, ip measured after 30 mins in presence of 0.1 mg/kg, sc 5-HT1A antagonist WAY 100635

[29] = species on record: Mus musculus; conditions: Swiss albino, 20 mg/kg; remark: listed apart in the source
Description: Hypothermic effect in Swiss albino mouse assessed as change in body temperature at 20 mg/kg, ip measured after 60 mins in presence of 0.1 mg/kg, sc 5-HT1A antagonist WAY 100635

[30] = system: Mus musculus; assay: Antipsychotic activity in mouse assessed as reversal of apomorphine-induced mesh climbing response at 50 mg/kg, ip administered 20 mins prior to apomorphine challenge measured after 120 mins
[31] = system: Mus musculus; assay: Antidepressant-like activity in Swiss albino mouse assessed as immobilization time at 1 mg/kg, sc after 30 mins by forced swim test; format: functional; conditions: route subcutaneous
[32] = system: Mus musculus; assay: Antidepressant-like activity in Swiss albino mouse assessed as immobilization time at 2 mg/kg, sc after 30 mins by forced swim test; format: functional; conditions: route subcutaneous
[33] = system: Rattus norvegicus; assay: Antipsychotic activity in 8-OH-DPAT-stimulated rat assessed as lower lip retractions at 5 mg/kg, iv administered 45 mins before 8-OH-DPAT challenge measured after 15 to 45 mins (reference value: 2.9 retractions); format: functional
[34] = system: Mus musculus; assay: Anxiolytic-like activity in mouse assessed as number of punished crossing at 5 mg/kg, ip after 6 mins by four-plate test (reference value: 1514 +/- 73 crossings); format: functional; conditions: route intraperitoneal
[35] = system: Mus musculus; assay: Anxiolytic-like activity in mouse assessed as number of punished crossing at 5 mg/kg, ip after 30 mins by four-plate test (reference value: 1514 +/- 73 crossings); format: functional; conditions: route intraperitoneal
[36] = system: Mus musculus; assay: Antidepressant-like activity in Swiss albino mouse assessed as immobilization time at 2.5 mg/kg, ip after 30 mins by forced swim test; format: functional, organism-based; parameters: dose 2.5 mg/kg
[37] = system: Mus musculus; assay: Antidepressant-like activity in Swiss albino mouse assessed as immobilization time at 5 mg/kg, ip after 30 mins by forced swim test; format: functional, organism-based; parameters: dose 5 mg/kg
[38] = system: Rattus norvegicus; assay: Induction of 5HT1A receptor in rat assesses as lower lip retractions at 5 mg/kg, iv after 15 mins (reference value: 0.1 +/- 0.1 retractions); format: functional
[39] = species on record: Mus musculus; conditions: Swiss albino, 2.5 mg/kg
Description: Hypothermic effect in Swiss albino mouse assessed as change in body temperature at 2.5 mg/kg, ip measured after 30 mins

[40] = species on record: Mus musculus; conditions: Swiss albino, 2.5 mg/kg; remark: listed apart in the source
Description: Hypothermic effect in Swiss albino mouse assessed as change in body temperature at 2.5 mg/kg, ip measured after 60 mins

[41] = species on record: Mus musculus; conditions: Swiss albino, 2.5 mg/kg; remark: listed apart in the source
Description: Hypothermic effect in Swiss albino mouse assessed as change in body temperature at 2.5 mg/kg, ip measured after 90 mins

[42] = species on record: Mus musculus; conditions: Swiss albino, 2.5 mg/kg; remark: listed apart in the source
Description: Hypothermic effect in Swiss albino mouse assessed as change in body temperature at 2.5 mg/kg, ip measured after 120 mins

[43] = species on record: Mus musculus; conditions: Swiss albino, 5 mg/kg; remark: listed apart in the source
Description: Hypothermic effect in Swiss albino mouse assessed as change in body temperature at 5 mg/kg, ip measured after 30 mins in presence of 0.1 mg/kg, sc 5-HT1A antagonist WAY 100635

[44] = species on record: Mus musculus; conditions: Swiss albino, 5 mg/kg; remark: listed apart in the source
Description: Hypothermic effect in Swiss albino mouse assessed as change in body temperature at 5 mg/kg, ip measured after 60 mins in presence of 0.1 mg/kg, sc 5-HT1A antagonist WAY 100635

[45] = system: Rattus norvegicus; assay: Induction of 5HT1A receptor in rat assesses as lower lip retractions at 0.1 mg/kg, iv after 15 mins (reference value: 0.1 +/- 0.1 retractions); format: functional
[46] = system: Rattus norvegicus; assay: Antipsychotic activity in 8-OH-DPAT-stimulated rat assessed as lower lip retractions at 0.1 mg/kg, iv administered 45 mins before 8-OH-DPAT challenge measured after 15 to 45 mins (reference value: 2.9 retractions); format: functional
[47] = system: Mus musculus; assay: Anxiolytic-like activity in mouse assessed as number of punished crossing at 10 mg/kg, ip after 6 mins by four-plate test (reference value: 554 +/- 46 crossings); format: functional; conditions: route intraperitoneal
[48] = system: Mus musculus; assay: Anxiolytic-like activity in mouse assessed as number of punished crossing at 10 mg/kg, ip after 30 mins by four-plate test (reference value: 554 +/- 46 crossings); format: functional; conditions: route intraperitoneal
[49] = system: Mus musculus; assay: Antipsychotic activity in mouse assessed as reversal of apomorphine-induced mesh climbing response at 50 mg/kg, ip administered 10 mins prior to apomorphine challenge measured after 30 mins; format: functional, organism-based; parameters: dose 50 mg/kg
[50] = species on record: Mus musculus; conditions: Swiss albino, 20 mg/kg; remark: listed apart in the source
Description: Hypothermic effect in Swiss albino mouse assessed as change in body temperature at 20 mg/kg, ip measured after 15 mins in presence of 5 mg/kg, sc 8-OH-DPAT

[51] = species on record: Mus musculus; conditions: Swiss albino, 20 mg/kg; remark: listed apart in the source
Description: Hypothermic effect in Swiss albino mouse assessed as change in body temperature at 20 mg/kg, ip measured after 30 mins in presence of 5 mg/kg, sc 8-OH-DPAT

[52] = species on record: Mus musculus; conditions: Swiss albino, 20 mg/kg; remark: listed apart in the source
Description: Hypothermic effect in Swiss albino mouse assessed as change in body temperature at 20 mg/kg, ip measured after 45 mins in presence of 5 mg/kg, sc 8-OH-DPAT

[53] = species on record: Mus musculus; conditions: Swiss albino, 20 mg/kg; remark: listed apart in the source
Description: Hypothermic effect in Swiss albino mouse assessed as change in body temperature at 20 mg/kg, ip measured after 60 mins in presence of 5 mg/kg, sc 8-OH-DPAT

[54] = system: Mus musculus; assay: Antipsychotic activity in mouse assessed as reversal of apomorphine-induced mesh climbing response at 50 mg/kg, ip administered 20 mins prior to apomorphine challenge measured after 40 mins

Chain of 5-hydroxytryptamine receptor 2A (P14842 whole entry): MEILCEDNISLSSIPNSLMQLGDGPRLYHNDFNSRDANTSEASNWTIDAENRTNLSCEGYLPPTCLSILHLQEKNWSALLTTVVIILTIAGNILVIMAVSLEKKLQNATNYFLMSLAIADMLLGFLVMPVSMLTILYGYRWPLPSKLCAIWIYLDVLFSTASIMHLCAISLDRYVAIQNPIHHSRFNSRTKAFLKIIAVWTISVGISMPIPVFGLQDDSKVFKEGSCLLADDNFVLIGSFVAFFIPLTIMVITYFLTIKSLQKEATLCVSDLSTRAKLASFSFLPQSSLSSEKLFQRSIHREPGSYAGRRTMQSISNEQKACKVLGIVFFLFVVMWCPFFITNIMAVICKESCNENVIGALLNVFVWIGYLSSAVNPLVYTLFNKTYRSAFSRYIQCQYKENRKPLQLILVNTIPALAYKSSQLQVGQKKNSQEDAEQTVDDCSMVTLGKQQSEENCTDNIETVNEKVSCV
Chain of D(2) dopamine receptor (P61169 whole entry): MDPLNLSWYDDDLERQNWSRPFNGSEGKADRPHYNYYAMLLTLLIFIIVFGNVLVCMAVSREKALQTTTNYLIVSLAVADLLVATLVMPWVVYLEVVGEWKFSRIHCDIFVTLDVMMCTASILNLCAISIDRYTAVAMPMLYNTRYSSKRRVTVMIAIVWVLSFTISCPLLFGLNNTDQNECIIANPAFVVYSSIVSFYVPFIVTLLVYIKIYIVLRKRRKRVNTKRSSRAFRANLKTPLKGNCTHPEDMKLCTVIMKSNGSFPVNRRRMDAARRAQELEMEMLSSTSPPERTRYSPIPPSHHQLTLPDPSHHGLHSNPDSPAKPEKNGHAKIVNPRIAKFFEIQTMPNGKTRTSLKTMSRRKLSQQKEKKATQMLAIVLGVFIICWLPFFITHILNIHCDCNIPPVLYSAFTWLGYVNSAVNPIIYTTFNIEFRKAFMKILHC

Structure (SMILES)	Activity [1]	Activity [2]	Activity [4]	Ki [5]	Ki [6]	Ki [7]	Activity [11]	Activity [12]	Activity [13]	Activity [14]	Activity [15]	deltaT [16]	deltaT [17]	deltaT [18]	deltaT [19]	deltaT [21]	deltaT [22]	deltaT [24]	deltaT [25]	deltaT [27]	other results
COc1cc(N)c(Cl)cc1C(=O)N[C@H]1CC2CC[C@H](C1)N2Cc1ccco1 (single isomer, unassigned)	2.6	2.7	inactive	2500 nM	16.6 nM	18.2 nM	68%	97%	100%	0.2	0.1	0 °C	-0.3 °C	-1.8 °C	-0.3 °C	-1 °C	0.1 °C	-1 °C	0.1 °C	-0.9 °C	Activity [3]: inactive; Activity [8]: Active; Activity [9]: Active; Activity [10]: Active; deltaT [20]: -0.2 °C; deltaT [23]: -0.1 °C; deltaT [26]: -0.1 °C; deltaT [28]: -1.3 °C; deltaT [29]: -0.8 °C; Activity [30]: Active
Br.CCCN(CCC)C1CCc2cccc(O)c2C1 (stereo not drawn)	–	–	–	–	–	–	–	–	–	–	–	–	–	–	–	–	–	–	–	–	Activity [31]: 45%; Activity [32]: 57%
O=C(N[C@@H]1CC2CC[C@H](C1)N2Cc1ccccc1)c1ccc2ccccc2c1 (single isomer, unassigned)	2.6	2.6	–	304 nM	2.5 nM	82.4 nM	81%	95%	100%	0.2	0.1	-1.5 °C	–	–	-0.9 °C	–	-0.6 °C	–	-0.5 °C	–	Activity [33]: 2.7; Activity [34]: 15; Activity [35]: 321; Activity [36]: inactive; Activity [37]: inactive; Activity [38]: 0.1; deltaT [39]: -0.2 °C; deltaT [40]: 0.1 °C; deltaT [41]: -0.1 °C; deltaT [42]: 0 °C; deltaT [43]: -1.3 °C; deltaT [44]: -0.9 °C
COc1ccccc1N1CCN(CCN(C(=O)C2CCCCC2)c2ccccn2)CC1.Cl.Cl.Cl	–	–	–	–	–	–	–	–	–	–	–	–	–	–	–	–	–	–	–	–	Activity [45]: 0; Activity [46]: 0.3
O=C(N[C@H]1CC2CC[C@H](C1)N2Cc1ccco1)c1ccc2ccccc2c1 (single isomer, unassigned)	2.7	2	inactive	2800 nM	24.1 nM	203 nM	–	–	–	0.1	0.6	-0.2 °C	–	-1.3 °C	0.1 °C	-0.8 °C	0.1 °C	-0.4 °C	0.1 °C	-0.2 °C	Activity [47]: 233; Activity [48]: 566; Activity ([3]; route intraperitoneal): 9%; deltaT [28]: -1.2 °C; deltaT [29]: -1.1 °C
COc1cc(N)c(Cl)cc1C(=O)N[C@@H]1CC2CC[C@H](C1)N2CC1CCCO1 (single isomer, unassigned)	2.4	2.4	–	5700 nM	6.2 nM	103 nM	63%	–	92%	0.3	0.5	-0.1 °C	-0.2 °C	-0.8 °C	-0.1 °C	-0.3 °C	0 °C	-0.1 °C	0 °C	-0.1 °C	Activity [49]: Active; deltaT [20]: 0 °C; deltaT [23]: -0.1 °C; deltaT [26]: 0 °C; deltaT [50]: -2.9 °C; deltaT [51]: -2.9 °C; deltaT [52]: -1.6 °C; deltaT [53]: -0.6 °C; Activity [54]: Active
